Measurements taken from US6642003B2, “Human glucose-dependent insulin-secreting cell line” (Cedars-Sinai Medical Center, priority 2001, dated 2003).

Tests used:
ARIP cells [1] = experiment: Immunocytochemistry for insulin, ARIP cells; format: cell-based, rat; details: GLP-1 10 nM, 72 h
Protocol: (§1) Cells were cultured on monocoated chamber slides (Nalge Nunc International; Naperville, Ill.) in the presence of GLP-1 (10 nM), or vehicle, for 72 h.
(§2) For the detection of insulin, cells were washed and fixed with 3% paraformaldehyde for 4 h, at room temperature in PBS, solubilized with 0.1% (vol/vol) Triton X-100 in PBS for 5 min. Cells were then incubated sequentially with an anti-insulin antibody and a secondary antibody, as described by the manufacturer (Biomeda Corp.; Foster City, Calif.). The cells were examined using a Ziess Axiophoto microscope (New York, N.Y.).

PANC-1 cells = experiment: Insulin release into culture medium (RIA), parental PANC-1 cells; format: cell-based, human
Protocol: Rat (ARIP) and human (PANC-1) ductal cell lines were respectively a gift from Dr. J. M. Egan (National Institute on Aging, Baltimore, Md.) or purchased from ATCC (American Type Culture Collection; Manassas, Va.). ARIP cells were cultured in F12 medium (Gibco-BRL, Gaithersburg; Md.) containing 100 μg/ml penicillin, 50 μg/ml streptomycin and 10% fetal calf serum (FCS; Gibco-BRL) at 37° C. under a humidified condition of 95% air and 5% CO2. PANC-1 cells were cultured in DMEM medium supplemented with antibiotics and FCS, as indicated for F12 medium. […]
PANC-1 (parental, IDX-1-transfected, and neomycin-transfected) cells and ARIP (only parental) cells were plated at density of 10^6 cells/well in a 6 well plate. […] Glucose-dependent insulin secretion was evaluated by culturing the cells in the presence of a determined concentration of GLP-1 (10 nM for 72 h) with increasing concentration of glucose in the culture medium ([…]). Insulin released into the medium was measured by RIA (Linco Research Inc.; St. Charles, Mass.). […]
(§3) Total cellular protein content was measured by utilizing the Bradford method (Bio-Rad; Richmond, Calif.). The amount of proteins measured was used as a correction factor for determining the relative amount of medium to be assayed for each individual RIA for insulin.

PANC-1/IDX-1 cells [2] = experiment: Insulin release into culture medium (RIA), PANC-1 cells transfected with human IDX-1; format: cell-based
Protocol: Rat (ARIP) and human (PANC-1) ductal cell lines were respectively a gift from Dr. J. M. Egan (National Institute on Aging, Baltimore, Md.) or purchased from ATCC (American Type Culture Collection; Manassas, Va.). ARIP cells were cultured in F12 medium (Gibco-BRL, Gaithersburg; Md.) containing 100 μg/ml penicillin, 50 μg/ml streptomycin and 10% fetal calf serum (FCS; Gibco-BRL) at 37° C. under a humidified condition of 95% air and 5% CO2. PANC-1 cells were cultured in DMEM medium supplemented with antibiotics and FCS, as indicated for F12 medium. Treatment with human GLP-1 (H-6795, Bachem; King of Prussia, Pa.) was carried out using cells grown to 80% of confluence, after washing the cell layer with serum-free medium and a “wash-out” incubation for 6-h with serum free medium. To determine dose response to GLP-1, cells were cultured with fresh serum-free medium containing increasing concentration of GLP-1 (0.1, 1, 10, 20 nM), or vehicle alone. At the completion of the experiment, media and cells were collected. To determine the time course of response, cells were cultured in serum-free medium with GLP-1 (10 nM) for 0, 12, 24, 48, 72 or 96 h. Control dishes were cultured with vehicle alone, or with the peptide receptor antagonist of GLP-1, Exendin-9 (100 nM) for 72 h (gift Dr. J. M. Egan). The glucose concentration in the culture medium was 12 mM for both cell lines.
(§4) PANC-1 cells were transfected with a pcDNA3 construct (Invitrogen; Carlsbad, Calif.) harboring the wild-type full-length IDX-1 cDNA using LipoTAXI (Catalog N. 204110; Mammalian Transfection Kit, Stratagene; La Jolla, Calif.). Control cells were transfected with the vector alone. The selection of positive (i.e. transfected) cells was carried out by culturing the cells in the presence of 400 μg/ml of G418 sulfate (GN-04, Omega; Tarzana, Calif.).
PANC-1 (parental, IDX-1-transfected, and neomycin-transfected) cells and ARIP (only parental) cells were plated at density of 10^6 cells/well in a 6 well plate. Once the cells reached 80% of confluence, they were washed with serum-free medium containing 12 mM glucose and exposed to fresh serum-free medium for increasing length of time (0, 12, 24, 48, 72, 96 h) in the presence of various concentrations of GLP-1 (0.1, 1, 10, 20 nM) or vehicle. Glucose-dependent insulin secretion was evaluated by culturing the cells in the presence of a determined concentration of GLP-1 (10 nM for 72 h) with increasing concentration of glucose in the culture medium ([…]). Insulin released into the medium was measured by RIA (Linco Research Inc.; St. Charles, Mass.). Total insulin accumulation in the culture medium was then normalized for total cellular protein content per each Individual cultures.
as §3

ARIP cells [3] = experiment: Immunofluorescence for IDX-1, ARIP cells; format: cell-based, rat
Protocol: as §1
For the detection of IDX-1, slightly different conditions were used. Briefly: the concentration of paraformaldehyde was decreased to 2%, and the concentration of Triton to permeabilize the cells was raised to 0.2% Triton-X-100. Cells were then washed with 0.01 M PBS three times for 3-5 min, and non-specific binding was inhibited by using 5% chick serum in 0.01 M PBS, at room temperature for 60 min in a humid chamber. A rabbit IDX-1 antibody directed against the N-terminus of the frog homologue of the IDX-1 gene was used as the primary antibody (1:500 diluted with 0.1% Triton-X 100, 1% BSA in 0.01 M PBS), and slides were incubated at 4° C. overnight in a humid chamber. After washing, cells were incubated with a fluorescein-conjugated goat anti-rabbit IgG antibody (Molecular Probes, Inc. Eugene, Oreg.) and incubated at room temperature for 1 hour in a humid chamber. Nuclei of cells stained with anti-IDX-1 antibody were visualized with Hoechst […] dye (Sigma, St. Louis, Mo.). The percentage of IDX-1 containing cells was evaluated by counting the number of IDX-1 “positive” cells divided by the total number of cells identified by nuclear staining.

PANC-1/IDX-1 cells [4] = experiment: Immunocytochemistry and immunofluorescence for insulin, PANC-1/IDX-1 cells; format: cell-based, human; details: GLP-1 10 nM, 72 h
Protocol: as §4, §1, §2
Insulin immunofluoresce, for co-immunostaining with IDX-1, was carried on using the […], while the secondary antibody was a goat anti-guinea pig IgG (Molecular Probes, Inc.). The cells were examined using a using a fluorescent microscope (E-800; Nikon, Tokyo).

glucagon-like peptide-1 [GLP-1]
insulin immunostaining (ARIP cells [1]): positive immunoreactivity for insulin
insulin secretion in response to GLP-1 (PANC-1 cells; parental PANC-1, 12 mM glucose, various GLP-1 concentrations): did not secrete insulin
insulin secretory response with increasing glucose (PANC-1 cells; wild-type PANC-1, GLP-1 10 nM for 72 h, data not shown): No insulin secretory response
lowest concentration of glucose required to induce the secretion of insulin (PANC-1/IDX-1 cells [2]; GLP-1 10 nM for 72 h): 3 mM
glucose dependence of insulin release (PANC-1/IDX-1 cells [2]; GLP-1 10 nM for 72 h, increasing glucose): release insulin in a glucose-dependent manner
time of peak insulin secretion (PANC-1/IDX-1 cells [2]; GLP-1 10 nM, 12 mM glucose): ≤ 48 h
time of plateau of insulin secretion (PANC-1/IDX-1 cells [2]; GLP-1 10 nM, 12 mM glucose): 72 h
concentration of GLP-1 required to induce insulin secretion (PANC-1/IDX-1 cells [2]; serum-free medium, 12 mM glucose, 72 h): 1 nM
effect on expression level of IDX-1 (ARIP cells [3]; GLP-1 10 nM for 72 h): further increase
cells expressing IDX-1 (ARIP cells [3]; GLP-1 or vehicle, 400 cells counted): approximately 70%
insulin immunostaining (PANC-1/IDX-1 cells [4]): capable of synthesizing insulin
IDX-1 containing cells also positive for intracellular insulin (PANC-1/IDX-1 cells [4]; double immunofluorescence): Approximately 85%
weakly IDX-1 positive cells not stained by anti-insulin antibody (PANC-1/IDX-1 cells [4]; double immunofluorescence): ~20%
